Data as given in US8637461B2, “Method of diagnosing and treating oxidative stress-impaired wound healing” (Kuwait University, priority 2011, dated 2014).

Assays:
[1] = tested on: dermal fibroblasts; experiment: BrdU cell proliferation assay in fibroblasts; type: cell-based, rat; conditions: fibroblasts with diabetic, inflammatory or hypercortisolemia phenotypes; ROS suppressors
Procedure: (§1) Primary dermal fibroblasts were obtained from dorsal skin of female Goto Kakizaki (GK, age 12-15 months) rats, a model for non-obese type 2 diabetes, and their Wistar control counterparts. After sterilization in povidine solution, rat skin was washed in sterile water and rinsed in 70% ethanol in PBS. Epidermis and dermis were separated following overnight incubation in 0.25% trypsine/EDTA at 4 C. Dermis was cut into small pieces and incubated in Dulbecco's modified Eagle medium (DMEM; Invitrogen) containing collagenase (250 U/ml; Sigma) for thirty min at 37 C in 5% CO2 with constant agitation. The sections were triturated vigorously to release fibroblasts, which were collected by centrifugation. The cell pellet was washed two times with PBS, re-suspended in complete medium (DMEM supplemented with 10% fetal calf serum, penicillin (100 U/ml), streptomycin (100 μg/ml)), 2 mM L-glutamine and 10 mM HEPES) and then cultured under a standard condition.
(§2) A hypercortisolemic state was mimicked by exposing control fibroblasts to dexamethasone (Dexa, Sigma) administered at 20 ng/ml every other day for a duration of 8 days. Similarly, the state of low-grade inflammation in fibroblasts was recapitulated experimentally by exposing these cells to TNF-α (4 ng/ml every day for 4 days). […] The concentration of IGF-1 (50 ng/ml, Peprotech) was determined by prior dose response experiment.
The proliferation and collagen synthesis of cultured fibroblasts were determined using, respectively the 5-bromo-2-deoxyuridine (BrdU) incorporation into DNA and a radiolabelled proline uptake assay.
Cells were seeded into 96-microtiter plates at a concentration of 1.5×10^4 and allowed to adhere overnight in DMEM supplemented with 10% FCS. After arrest by incubation in DMEM supplemented with 0.5% FCS for 24 hrs, cells were exposed to IGF-I (50 ng/ml) in DMEM containing […] 5-bromo-2-deoxyuridine (BrdUrd). Incorporation of BrdUrd into DNA was estimated using 5-bromo-2-deoxyuridine labeling and detection kit (Roche Applied Science) according to the manufacturer's instructions.

[2] = tested on: Akt; experiment: Akt phosphorylation, FACE cell-based ELISA in fixed fibroblasts; parameters: species or system rat; conditions: diabetic, TNF-α- or dexamethasone-exposed cells, EUK-134
Procedure: as §1, with “The cell pellet was washed two times with PBS, re-suspended in complete medium (DMEM supplemented with 10% fetal calf serum, penicillin (100 U/ml), streptomycin (100 μg/ml)), 2 mM L-glutamine and 10 mM HEPES) and then cultured under a standard condition.” left out
(§3) A hypercortisolemic state was mimicked by exposing control fibroblasts to dexamethasone (Dexa, Sigma) administered at 20 ng/ml every other day for a duration of 8 days. […] The concentration of IGF-1 (50 ng/ml, Peprotech) was determined by prior dose response experiment.
Activation of Akt and JNK was analyzed in fixed fibroblasts using FACE-Akt and FACE-JNK (both from Active Motife). […] Labeling with antibodies was conducted according to the manufacturer's protocol and the resulting phosphoantibody signal was calculated after correction for number of cells and total Akt or JNK levels in each sample. […]

[3] = tested on: protein-bound carbonyls; experiment: Protein-bound carbonyl ELISA in fibroblasts; type: cell-based, rat; conditions: diabetic, TNF-α- or dexamethasone-exposed cells; EUK-134
Procedure: as §1, with “The cell pellet was washed two times with PBS, re-suspended in complete medium (DMEM supplemented with 10% fetal calf serum, penicillin (100 U/ml), streptomycin (100 μg/ml)), 2 mM L-glutamine and 10 mM HEPES) and then cultured under a standard condition.” left out
as §3
Protein-bound carbonyl levels in fibroblasts, a marker of cumulative oxidative stress, were determined using a procedure in which a sensitive ELISA-based assay was used to measure total protein-bound carbonyls using oxidized bovine serum albumin (BSA) as standard. […]

[4] = Body weight and fasting plasma parameters in diabetic and hypercortisolemic rats; type: in vivo, rat
Procedure: All animal procedures were performed in accordance with the NIH Guidance for the Care and Use of Laboratory Animals. The current study used, respectively the GK and Dexamethasone-treated rats as models for diabetes and hypercortisolemia. Dexamethasone was administered subcutaneously at a dose of 2.5 μg/kg body weight in the morning (8:00 AM) and in the evening (8:00 PM) for a duration of four weeks before wounding and this form of therapy continued during the course of healing. […] Weight and age-matched female Wistar rats (Kuwait University breeding colony) served as the corresponding controls. All of the animals were maintained under standard conditions with 12 hours on/off light cycle, commercial diet, and water ad libitum. GK rats destined for wounding were initially matched with regard to body weight (e.g., 230 to 250 g), and plasma levels of glucose, free fatty acids and insulin. These indices are commonly used to reflect the severity of the diabetic state.
Animals used for IGF-1 sensitivity (n=6/group) and wound healing (n=8) studies were partitioned into five study groups including control, diabetic, hypercortisolemic, diabetic+EUK and hypercortisolemic+EUK. The EUK-134 was administered for duration of four weeks before wound induction and it continued during the course of healing.

[5] = tested on: reactive oxygen species (ROS); experiment: ROS generation in cultured fibroblasts (DCF-DA); type: cell-based, rat
Procedure: as §1, §2
ROS generation in cultured fibroblasts was evaluated using dichloroflurescein-diacetate (DCF-DA, Molecular Probes), a probe that is oxidized to the fluorescent product DCF upon exposure to hydrogen peroxide, peroxynitrite, hydroxyl radical and nitric oxide. Its concentration serves as an indicator of the overall degree of intracellular oxidative stress.
Cells seeded in 96-well plates were incubated for thirty minutes at 37 C in serum free media containing 5 μM of DCF-DA. The plates were then washed twice with Krebs Ringer Buffer (KR) and the fluorescence readings were taken every 15 min for 1 hr at Ex=485 and Em=530. Subtracted background values were obtained from wells containing DCF-DA without cells. […]

[6] = dexamethasone-treated (hypercortisolemic) rats + EUK-134 12.5 mg/kg ip every other day
[7] = diabetic (GK) rats + EUK-134 12.5 mg/kg ip every other day

Compound: COc1cccc(C=NCCN=Cc2cccc(OC)c2[O-])c1[O-].[Cl-].[Mn+3] [EUK-134]
- impairment in key fibroblast functions (collagen synthesis, cell proliferation, migration, contraction) [1]: ameliorates
- Akt phosphorylation in response to IGF-1 [2]: partially restored
- carbonylated protein accumulation [3]: returned to approximately normal
- FBG (fasting blood glucose) [4, 6]: 81 ± 12 mg/dL
- FFA (free fatty acid) [4, 6]: 327 ± 16 µM
- FPI (fasting plasma insulin) [4, 6]: 0.58 ± 0.052 ng/mL
- FBG (fasting blood glucose) [4, 7]: 122 ± 18 mg/dL
- FFA (free fatty acid) [4, 7]: 353 ± 18 µM
- FPI (fasting plasma insulin) [4, 7]: 0.66 ± 0.05 ng/mL
- abnormalities regarding lipid and carbohydrate profiles ([4]; diabetic and hypercortisolemic rats, chronic treatment with ROS suppressors): ameliorated
- reactive oxygen species (ROS) levels ([5]; diabetic, TNF-α- or dexamethasone-exposed cells, EUK-134): approximately restores normal ROS levels
- HSOS (oxidative stress) ([5]; fibroblasts with diabetic, inflammatory or hypercortisolemia phenotypes, ROS suppressors): lessen the HSOS
